Results from PubChem BioAssay (NCI).
Where “and” joins values, the source holds several entries; their conditions need not be identical. Equal entries are not always repeated.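 Compound exposure: 48 hours, 5 concentrations, 96-well plates. Abbreviation: GI50, concentration required for 50% inhibition of growth. Definition used: TGI = concentration required for complete inhibition of growth.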

Key:
Experiment in all cases: NCI tumour cell line growth inhibition, 48 h
[1] = tested on: DMS 114 small cell lung
[2] = tested on: DMS 273 small cell lung
[3] = tested on: M19-MEL melanoma
[4] = tested on: HOP-18 NSCLC
[5] = tested on: KM20L2 colon
[6] = tested on: P388 leukemia
[7] = tested on: SN12K1 renal
[8] = tested on: P388/ADR leukemia
[9] = tested on: RXF-631 renal

Compound | TGI [1] [µM] | TGI [2] [µM] | TGI [3] [µM] | TGI [4] | TGI [5] [µM] | TGI [6] [µM] | TGI [7] [µM] | TGI [8] [µM] | GI50 [1] [µM] | GI50 [5] [µM] | GI50 [3] [µM] | GI50 [4] [µM] | TGI [9] [µM]
O=c1cc(-c2ccccc2)[nH]c2c(F)ccc(F)c12 | > 100 | > 100 | > 100 | > 100 µM |  |  |  |  |  |  |  |  | 
CCC(C)Cn1c(C)nc2c1C(=O)c1ccccc1C2=O (stereo unspecified) |  | 64 | 33.9 |  | > 100 |  |  |  |  |  |  |  | 
CC1[C@@H]2C[C@@H]3O[C@@]34[C@H]3CCC5Cc6nc7c(nc6C[C@@]5(C)C3(O)CC(=O)[C@@]24CO[C@]12OC(C)(C)CC2O)CC1CC[C@@H]2C3=C[C@H]4O[C@@]5(O[C@@](C)(CO)C[C@@H]5O)C(C)[C@@]4(O)[C@]3(C)[C@@H](O)CC2[C@]1(C)C7 (stereo partly specified) | 1.09 | 0.0177 | > 3.52 | > 3.52 µM | 0.244 | 0.357 | 0.666 | 0.232 |  |  |  |  | 
CN(C)CC(C)(C)C(=O)/C=C/c1ccccc1 | 29.1 | 47.7 | 32.2 | 49.8 µM | 28.8 |  |  |  |  |  |  |  | 
COc1cccc2c1C(=O)c1c(O)c3c(c(O)c1C2=O)C[C@@](O)(C(=O)CO)CC3OC1CC(NCCCCC(OC(C)=O)OC(C)=O)C(O)C(C)O1 (stereo partly specified) | 0.00291 |  | 0.00334 | 0.00926 µM and 0.0807 µM | 0.00875 |  |  |  | 0.00083 | 0.000858 | 0.00156 | 0.0078 | 0.00803
CN(C)CCSc1nccc(-c2ccc(-c3ccnc(SCCN(C)C)n3)s2)n1 | 25.5 | 22.8 | 26.6 | 67.2 µM | 23.6 | 3.18 | 24.6 | 6.74 |  |  |  |  | 
Cc1cc(N)c2cc(NC(=O)CCCCCCCCC(=O)Nc3ccc4nc(C)cc(N)c4c3)ccc2n1 |  | > 45.3 | > 100 | > 100 µM | > 74.3 |  |  |  |  |  |  |  | 
C[S+](C)C1(c2ccccc2)C(=O)c2ccccc2C1=O | > 100 | > 100 | > 100 | > 100 µM | > 100 |  |  |  |  |  |  |  | 
